Data as given in patent US7053177B1, “Random peptides that bind to gastro-intestinal tract (GIT) transport receptors and related methods” (Cytogen Corporation, priority 1997, dated 2006).
Read-outs that look alike come from different tables or passages of the source. Ends that are not written are not given here. * marks the point of attachment. Dansyl = CN(C)c1cccc2c(S(=O)(=O)*)cccc12

Legend:
fixed Caco-2 cells [1] = assay: Effect of thrombin cleavage on binding of GST-peptide fusions to fixed Caco-2 cells; details: in words
Procedure: Binding of intact and thrombin-cleaved GST-peptide fusions to fixed Caco-2 cells was compared.
Thirty micrograms of each GST-peptide was treated with bovine thrombin (1 μ/ml; 0.4 NIH units; Sigma CN.T9681) for 18h at room temperature in 20 mM Tris-HCl pH8.0, 150 mM NaCl, 2.5 mM CaCl2. Controls were similarly treated without addition of thrombin. Ten micrograms of each GST-peptide fusion was removed for PAGE analysis, and 10 μg of fusions were added in duplicate to the fixed Caco-2 cells before 5-fold serial dilutions (1% BPT diluent). The fusions were allowed to bind for 1h at room temperature. Following 6 washes with 1% BPT, binding was assayed by ELISA.

[2] = tested on: P100 membrane fraction of Caco-2 cells; assay: GST-PAX2 peptides: relative binding to P100 fractions (ratio to GST-HAX42); details: GST-peptide 20 μg/ml; binding to plastic subtracted; GST-HAX42 = 1.00
Procedure: The peptides and proteins were analyzed by a dansylated peptide ELISA method in which 96 well plates were coated overnight at 4° C. with 100 μl/well coating protein (normally 100 μg/ml P100 membrane fraction) in 0.05M carbonate buffer pH9.6. Nonspecific binding was blocked using 200 μl/well, 2% Marvel/PBS for 2 hours at 37° C. prior to incubation with dansylated peptides. The plates were washed three times with PBS/0.05% Tween 20 and after each subsequent incubation step. […] A buffer blank control was included to ensure that background binding to plastic was not due to the antibodies used in the assay system. […] The plates were then incubated with an anti-mouse λ-HRP conjugated antibody (Southern Biotech 1060-05) at a 1:10,000 dilution in blocking solution, 100 μl/well for 1 hour at room temperature. Plates were developed using 75 μl/well Bionostics TMB substrate and incubated for approximately 10 minutes. The developing reaction was stopped using Bionostics Red Stop solution (25 μl/well), and the optical density of the plates was read at 650 nm.
After subtraction of the GST-peptide binding to plastic from P100 binding values, the binding of GST-PAX2 peptides were represented as a ratio of GST-HAX42 binding to P100, which was given the arbitrary value of 1.00. The following ratios were determined from binding to P100 of GST-peptides at a peptide concentration of 20 μg/ml. […]

fixed Caco-2 cells [3] = assay: Competition ELISA: synthetic peptides versus GST-peptide fusions on fixed Caco-2 cells; details: peptide from 100 μg/ml serially diluted; GST fusion 10 μg
Procedure: Caco-2 cells were fixed, treated with phenylhydrazin and blocked as described above. Synthetic peptides (100 μg/ml) were applied in duplicate to Caco-2 cells and serially diluted down the 96-well plate. The corresponding GST-peptide fusion protein (10 μg) was added to each well and the plates were incubated for 2h at room temperature with agitation. Binding of the GST-peptide fusion proteins to the cells was assayed using the ELISA technique described above.

[4] = tested on: P100 membrane fraction of Caco-2 cells; assay: Binding of dansylated peptides to P100 fractions (peptide/particle correlation); details: compared with scrambled PAX2 control
Procedure: Caco-2 cell membrane (P100) and cytosolic (S100) fractions were prepared using a modification of the method described in Kinsella, B. T., O'Mahony, D. J. and G. A. FitzGerald, 1994, J. Biol. Chem. 269(47): 29914–29919. Confluent Caco-2 cell monolayers (grown in 75 cm^2 flasks for up to 1 week at 37° C. and 5% CO2) were washed twice in Dulbecco's PBS (DPBS) and the cells were harvested by centrifugation at 1000 rpm after treatment with 10 mM EDTA-DPBS. The cells were washed 3 times in DPBS and the final cell pellet was resuspended in 3 volumes of ice cold HED buffer (20 mM HEPES (pH 7.67), 1 mM EGTA, 0.5 mM dithiothreitol, 1 mM phenylmethylsulphonyl fluoride (PMSF)). The cells were allowed to swell for 5 min on ice prior to homogenization for 30 sec. The homogenates were centrifuged at 40,000 rpm for 45 min at 4° C. The supernatant (S100) was removed and the pellet (P100) was resuspended in HEDG buffer (20 mM HEPES (pH 7.67), 1 mM EGTA, 0.5 mM dithiothreitol, 100 mM NaCl, 10% glycerol, 1 mM PMSF). Protein concentrations were determined using the Bradford assay (Bradford, M. M., 1976, Anal. Biochem. 72: 248–254).
Binding of peptide and/or peptide-coated PLGA particles to membrane (P100) and cytosolic (S100) fractions was assessed by detection of the dansyl moiety incorporated in the peptide. Costar ninety six well ELISA plates were coated with S100 and P100 fractions (100 μg/ml in 0.05 M NaHCO3) overnight at 4° C. The plates were blocked with 0.5% bovine serum albumin in DPBS for 1 h at room temperature and washed 3 times in 1% BSA-DPBS. Peptide-coated particles or peptides were dispersed in the same buffer and added to the plates at concentrations in the range 0.0325–0.5 mg/well. […] The plates were incubated for 1 h at room temperature. The wells were washed 3 times in 1% BSA-DPBS and 100 μl of goat anti-mouse IgGλ:HRP antibody (Southern Biotechnology 1060-05; 1:10,000) was added per well. The plates were incubated for 1 h at room temperature. After washing 3 times in 1% BSA-DPBS 100 μl of TMB substrate (3,3′,5′,5-tetramethylbenzidine; Microwell Peroxidase Substrate System (Kirkegaard and Perry Laboratories 50-76-00)) was added and the optical density was measured at 650 nm at various time intervals.
Binding of dansylated peptides to P100 fractions was assessed to determine if peptide binding was predictive of peptide-coated particle binding.

[5] = tested on: P100 membrane fraction of Caco-2 cells; assay: Dansylated peptide ELISA: relative binding of PAX2 and HAX42 peptides to P100 fractions (ratio to ZElan021); details: HAX42 peptides, ratio to ZElan021 = 1.00
Procedure, shortened: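 Plates coated overnight at 4 °C with Caco-2 P100 membrane fraction (normally 100 μg/ml, pH 9.6) and blocked with 2% Marvel/PBS were incubated with dansylated peptides. Binding was detected with anti-mouse λ-HRP and TMB, read at 650 nm, and expressed relative to ZElan021.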

fixed Caco-2 cells [6] = assay: ELISA of GST fusion proteins on fixed Caco-2 cells; type: binding; details: in words
Procedure: Fixed Caco-2, C2BBe1, and A431 cell plates were prepared by growing cells on tissue culture treated microtiter plates. When cells were confluent, plates were fixed with 10% formaldehyde, washed twice with PBS and stored with 0.5% BSA-PBS at −20° C. […] The standard ELISA procedure was followed at this point.
The standard ELISA procedure was modified as follows. GST proteins were diluted to an appropriate concentration in PBS containing 1% BSA and 0.05% Tween20 (1% BPT), titered and incubated one hour at room temperature. Following five washes an anti-GST monoclonal antibody was added (Sigma, St. Louis Clone GST-2 diluted 1:10,000 in 1% BPT) and incubated one hour. After five more washes goat anti-mouse IgG2b-HRP was added (Southern Biotechnology Associates Inc., Birmingham, Ala., diluted 1:4000 in 1% BPT) and incubated one hour. After five washes plates were developed with TMB peroxidase substrate (Kirkegard and Perry, Gaithersburg, Md.). All data is presented with background binding subtracted.

fixed C2BBe1 cells = assay: Competition ELISA: dansylated peptides versus GST fusion proteins on fixed C2BBe1 cells; type: binding; details: 5 μg/ml concentration used in competition assays
Procedure: The standard ELISA procedure was modified as follows. GST fusion proteins and peptides were diluted to an appropriate concentration in PBS containing 1% BSA and 0.05% Tween 20. Peptides were titered, a constant concentration of diluted GST protein was added to titered peptides and the mixture was incubated one hour at room temperature. Following five washes, an anti-GST monoclonal antibody was added (Sigma, St. Louis Clone GST-2 diluted 1:10,000 in 1% BPT) and incubated one hour. After five more washes goat anti-mouse IgG2b-HRP was added (Southern Biotechnology Associates Inc., Birmingham, Ala., diluted 1:4000 in 1% BPT) and incubated one hour. After five washes plates were developed with TMB peroxidase substrate (Kirkegard and Perry, Gaithersburg, Md.). All data is presented with background binding subtracted.
Data is presented as O.D. vs. peptide concentration and as percent inhibition of GST-P31 binding vs. peptide concentration. Uncompeted GST-P31 binding was considered as 100% binding.
FIGS. 10A–10C present a compilation of data generated by competition ELISA of GST-P31, GST-PAX2, GST-SNi10 and GST-HAX42 versus various dansylated peptides on fixed C2BBe1 cells. IC50 values are in μM and include ranges determined from multiple assays. The GST/C2BBe1 column is a summary of GST protein binding to fixed C2BBe1 cells.

[7] = target: T1, recombinant D2H receptor domain (human D2H transporter, amino acid residues 387-685), His-tag fusion protein (human, UniProt Q07837 387-685); assay: phage ELISA, OD on D2H over OD on BSA
T1 construct: purified under denaturing conditions; coated on plates
T1 sequence: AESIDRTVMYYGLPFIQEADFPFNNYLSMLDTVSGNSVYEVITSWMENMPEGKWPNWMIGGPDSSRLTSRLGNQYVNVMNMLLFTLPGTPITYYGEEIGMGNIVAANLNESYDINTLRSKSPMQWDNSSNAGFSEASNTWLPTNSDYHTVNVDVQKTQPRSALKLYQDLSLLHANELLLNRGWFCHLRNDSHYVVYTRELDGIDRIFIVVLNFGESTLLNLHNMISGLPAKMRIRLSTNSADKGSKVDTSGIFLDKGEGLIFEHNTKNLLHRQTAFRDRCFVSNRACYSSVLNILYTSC
Procedure: (§1) 6.6. Receptor ELISA Procedure 96 well plates were coated overnight with GIT receptor, BSA and, optionally, IDE (insulin degrading enzyme, an irrelevant His-fusion protein)or hTF. The plates were blocked for one hour with 0.5% BSA-PBS. After clarification, the amplified phage were diluted 1:100 in 1% BSA plus 0.05% Tween 20 in PBS and added to the plates. Following incubation of the plates on a rotator for 1 to 2 hours, the plates were washed 5 times with 1% BSA plus 0.05% Tween 20 in PBS. […] After the plates were washed 5 times, as described above, TMB substrate was added to the wells. The plates were read at 650 nm absorbance.
Binding to fixed Caco-2 cells, D2H and BSA was examined.

[8] = target: bovine serum albumin (bovine) (UniProt P02769); assay: phage ELISA on coated BSA
[9] = target: T2, recombinant D2H receptor domain (human D2H transporter, amino acid residues 387-685), His-tag fusion protein (human), Q07837; assay: phage ELISA on coated D2H
T2 chain: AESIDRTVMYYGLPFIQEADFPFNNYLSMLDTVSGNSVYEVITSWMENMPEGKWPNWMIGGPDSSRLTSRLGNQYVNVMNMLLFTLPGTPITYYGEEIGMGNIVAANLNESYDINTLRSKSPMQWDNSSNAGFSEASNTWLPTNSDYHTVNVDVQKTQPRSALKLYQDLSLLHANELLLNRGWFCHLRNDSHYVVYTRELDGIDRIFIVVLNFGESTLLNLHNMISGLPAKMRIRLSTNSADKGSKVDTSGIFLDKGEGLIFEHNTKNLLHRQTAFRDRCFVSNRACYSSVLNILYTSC

[10] = target: T2, recombinant D2H receptor domain (human …); assay: phage ELISA, OD on D2H over OD on BSA
[11] = target: bovine serum albumin (bovine) (UniProt P02769); assay: phage ELISA on coated BSA; remark: listed apart in the source
[12] = target: T3, recombinant hSI receptor domain (human sucrase-isomaltase complex, amino acid residues 272-667), His-tag … (human, UniProt P14410 272-667); assay: phage ELISA on coated hSI
T3 construct: purified under denaturing conditions on Ni-NTA agarose; coated on plates; also called hS1
Procedure: as §1

[13] = target: T3, recombinant hSI receptor domain (human …); assay: phage ELISA, OD on hSI over OD on BSA
Procedure: as §1

T3 sequence (P14410 272-667 limits assumed, form in doubt, one chain of several): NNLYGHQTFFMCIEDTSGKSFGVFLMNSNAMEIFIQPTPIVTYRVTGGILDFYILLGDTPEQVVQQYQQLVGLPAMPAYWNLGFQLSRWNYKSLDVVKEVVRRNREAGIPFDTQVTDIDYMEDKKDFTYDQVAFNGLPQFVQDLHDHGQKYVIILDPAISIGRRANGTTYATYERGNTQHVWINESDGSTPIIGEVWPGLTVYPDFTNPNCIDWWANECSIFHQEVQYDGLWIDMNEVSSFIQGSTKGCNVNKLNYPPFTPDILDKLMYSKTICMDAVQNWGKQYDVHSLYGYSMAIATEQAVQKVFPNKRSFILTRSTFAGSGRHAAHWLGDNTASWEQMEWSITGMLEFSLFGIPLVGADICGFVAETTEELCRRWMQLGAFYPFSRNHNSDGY
Chain of bovine serum albumin (bovine) (P02769 25-607 limits assumed): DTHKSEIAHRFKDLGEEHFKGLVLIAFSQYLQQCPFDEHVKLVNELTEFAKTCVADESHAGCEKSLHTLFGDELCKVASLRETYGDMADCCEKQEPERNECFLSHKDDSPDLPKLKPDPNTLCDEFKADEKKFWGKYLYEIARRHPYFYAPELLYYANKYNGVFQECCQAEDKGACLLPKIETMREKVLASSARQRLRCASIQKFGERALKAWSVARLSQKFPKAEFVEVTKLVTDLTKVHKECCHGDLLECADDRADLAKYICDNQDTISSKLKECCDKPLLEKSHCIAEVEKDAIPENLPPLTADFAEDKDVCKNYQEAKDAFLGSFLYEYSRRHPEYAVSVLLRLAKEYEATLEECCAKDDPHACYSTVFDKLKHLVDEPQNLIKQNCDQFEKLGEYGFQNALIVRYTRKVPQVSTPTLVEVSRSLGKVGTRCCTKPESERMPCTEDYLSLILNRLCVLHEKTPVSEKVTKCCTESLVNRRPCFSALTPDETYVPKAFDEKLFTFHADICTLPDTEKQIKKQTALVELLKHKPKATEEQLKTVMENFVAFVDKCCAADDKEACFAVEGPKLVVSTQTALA

GST-PAX2-106: GST fusion of truncated peptide derived from PAX2, SEQ ID NO: 188 (TNAKHSSHNRRLRTRSRPN; also: GST fusion)
Effect of cleavage with thrombin on detection of binding to fixed Caco-2 cells (fixed Caco-2 cells [1]): significantly reduced | Value (binding to P100 as ratio of GST-HAX42 binding) [2]: 2.71

H-K(Dansyl)SDHALGTNLRSDNAKEPGDYNCCGNGNSTGRKVFNRRRPSAIPT-NH2 (cysteines drawn unpaired) [ZElan021]
Inhibition of GST-HAX42 binding to fixed Caco-2 cells (fixed Caco-2 cells [3]): not inhibited | Binding of dansylated peptide to P100 fraction ([4]; initial assay): strong binding | Binding of dansylated peptide to P100 fraction ([4]; repeat assay): significant binding | Binding value at 20 μg/ml ([5]; 20 μg/ml): 1.00 | Binding value at 25 μg/ml ([5]; first column): 1.00 | Binding value at 25 μg/ml ([5]; second column): 1.00 | Binding value at 25 μg/ml ([5]; third column): 1.00 | Binding value at 50 μg/ml ([5]; first column): 1.00 | Binding value at 50 μg/ml ([5]; second column): 1.00

GST-HAX42: GST-fusion protein from HAX42 (SDHALGTNLRSDNAKEPGDYNCCGNGNSTGRKVFNRRRPSAIPT; cysteine pairing not given here; also: GST fusion)
Binding to fixed Caco-2 or C2BBe1 cells relative to GST control (fixed Caco-2 cells [6]): weak to moderate binding | Crossreactivity of GST fusion to ZElan018 (PAX2) and ZElan021 (HAX42) (fixed C2BBe1 cells): exhibited crossreactivity | Value (binding to P100 as ratio of GST-HAX42 binding) [2]: 1.00

B1: phage DCX36 (peptide)
peptide: SWSSWNWSSKTTRLGDRATREGCGPSQSDGCPYNGRLTTVKPRT
notes: M13 phage displaying this insert as N-terminal pIII fusion; whole phage in the ELISA
D2H/BSA [7]: 5 ratio

SGSLNAWQPRSWVGGAFRSHANNNLNPKPTMVTRHPT (modifications not checked) [phage DCX39]
OD [8]: 0.066 OD 650 nm | OD [9]: 0.299 OD 650 nm | D2H/BSA [10]: 5

B2: phage S21 (peptide)
peptide: SPRSFWPVVSRHESFGISNYLGCGYRTCISGTMTKSSPIYPRHS
notes: as for B1
OD [11]: 0.092 OD 650 nm | OD [12]: 0.845 OD 650 nm | hSI/BSA [13]: 9 ratio
